Consider one compound from patent US20260256922A1, “PRODRUGS USEFUL FOR REDUCING ANTHRACYCLINE CARDIOTOXICITY” (WAKE FOREST UNIVERSITY HEALTH SCIENCES, priority 2022, published 2026).

The nature of data set [1]: Methylene blue assay of H2S release. Format: physicochemical. The settings on record: for H2S released: c1 40 μM. The protocol:
FIG. 3. Methylene blue assay depicting the time-dependent release of H2S from c1 (40 μM) while in the presence of H2O2 (40 μM) and carbonic anhydrase (CA). Plotted as the mean±SEM from three independent experiments. Data were collected in the presence (circles) or absence (squares) of H2O2.
H2S release from c1. We confirmed the time-dependent liberation of H2S using a methylene blue assay^46 and measuring the resulting absorbance at 670 nm after c1 exposure to H2O2 (FIG. 3, circle). Using a calibration curve generated with Na2S, we determined that c1 (40 μM) was able to release more than 16 μM H2S while in the presence of both H2O2 ([…]) and carbonic anhydrase (CA). […] As a control, the same assay was also run in the absence of CA (data not shown). Under these conditions, c1 exposure to H2O2 yielded small amounts of H2S ([…]). This is presumably due to isocyanate formation and the direct release of H2S from the breakdown of 4.
With carbonic anhydrase: Six separate vials were each filled with 150 μL of freshly degassed PBS (pH 7.4) containing Zn(OAc)2 (2 mM), carbonic anhydrase (0.1 mg/mL), and DOX (80 μM). Next, 150 μL of Na2S stock solution in freshly degassed PBS (pH 7.4), and at differing concentrations (6.25, 12.5, 25.0, 50.0, 100 and 200.0 μM), was added to each vial to give a final volume of 300 μL and a final concentration of 3.125, 6.25, 12.5, 25.0, 50.0, and 100.0 µM Na2S. […] The MB solution was transferred to a 1.0 mL UV cuvette and the absorbance at 670 nm was recorded.
Without carbonic anhydrase: Six separate vials were each filled with 150 μL of freshly degassed PBS (pH 7.4) containing Zn(OAc)2 (2 mM) and DOX (80 μM). […] The MB solution was transferred to a 1.0 mL UV cuvette and the absorbance at 670 nm was recorded. […]
With carbonic anhydrase: To a 20 mL scintillation vial containing 9770 μL of freshly degassed PBS (pH 7.4) was added stock solutions of carbonic anhydrase (50 μL), H2O2 (40 μL), Zn(OAc)2 (100 μL), and c1 (or c2) (40 μL). […] After reacting for 30 min in the dark, absorbance measurements were recorded at 670 nm. […]

Data set [2] has as its system 4T1 mouse breast cancer cells. As to the kind of experiment: LDH release cytotoxicity assay in 4T1 cells. Format: cell-based. The settings on record: 10 or 20 μM, 24 or 48 h, other than the lowest dose and shortest time. From the text:
FIG. 8. Cytotoxicity of DOX and prodrugs in 4T1 mouse breast cancer cells.
DOX is a known cytotoxic agent used against 4T1 triple-negative breast cancer cells grown in culture or injected orthotopically into mouse mammary fat pads to initiate the development of tumors.^52,53 As an initial test to see if c1 could retain the cytotoxic properties of DOX toward tumor-forming 4T1 cells, we conducted LDH assays to assess cytotoxicity of DOX, c1 and c2 treatments.
A general note: Release of lactate dehydrogenase indicates damage to the cell membrane.

For `COc1cccc2c1C(=O)c1c(O)c3c(c(O)c1C2=O)C[C@@](O)(C(=O)CO)C[C@@H]3O[C@H]1C[C@H](NC(=S)OCc2ccc(B3OC(C)(C)C(C)(C)O3)cc2)[C@H](O)[C@H](C)O1` [c1], the “share of H2S production via COS hydrolysis facilitated by CA” value in data set [1] is reported as ~ 70%. Further, the H2S released entry in data set [1] (absence of peroxides) is given as “negligible amounts of H2S”; in data set [1] (in presence of H2O2 and carbonic anhydrase) it was “more than 16 μM”. For the same compound, in data set [2], the “cytotoxicity (LDH release)” value was “comparable, sometimes less and sometimes more, toxicity relative to DOX”.
